In paper PMC11187126, “Structure and dynamics of the pyroglutamylated RF-amide peptide QRFP receptor GPR103” (Nature Communications, 2024):
Where two headings read alike, the source gives them in different places. No end group written: not given here.

Biological target: T1, GPR103 E203^ECL2A/Q211^5.35E/E297^6.59A (Homo sapiens, UniProt Q96P65, E203A/E297A/Q211E)
T1 construct: we used human full-length QRFPR-encoding plasmids; expressed in transfected cells; host or cells: HEK293 cells (HEK293A in the flow cytometry section), pCAGGS vector
T1 sequence (Q96P65 1-431 E203A/Q211E/E297A): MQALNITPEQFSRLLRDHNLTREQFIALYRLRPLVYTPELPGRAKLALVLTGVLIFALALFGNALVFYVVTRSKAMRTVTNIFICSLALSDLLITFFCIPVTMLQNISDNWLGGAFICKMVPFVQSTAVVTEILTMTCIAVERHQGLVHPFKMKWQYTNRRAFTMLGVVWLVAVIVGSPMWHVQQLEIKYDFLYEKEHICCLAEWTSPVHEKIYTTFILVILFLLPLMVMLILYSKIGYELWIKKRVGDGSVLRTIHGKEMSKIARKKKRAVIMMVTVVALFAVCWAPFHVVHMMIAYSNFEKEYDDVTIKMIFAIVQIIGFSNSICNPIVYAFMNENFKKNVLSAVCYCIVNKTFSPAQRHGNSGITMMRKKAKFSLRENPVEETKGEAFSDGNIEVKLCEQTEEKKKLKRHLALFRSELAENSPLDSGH
Assay: TGFα shedding assay; Exp. level >WT (1:1)
Type: cell-based

Emax (Exp. #1): 103.81 % WT
Emax (Exp. #2): 100.88 % WT
Emax (Exp. #3): 112.76 % WT
Emax (mean, read-out: Emax): 106%
EC50 (n = 3): 427 nM
Emax (n = 3, read-out: Emax): 109 ± 2.9%
Substance: TSGPLGNLAEELNGYSRKKGGFSFRF-NH2 [QRFP26]
